Laboratory results published in patent US20250269043A1, “TARGETED BIFUNCTIONAL DEGRADERS” (YALE UNIVERSITY, priority 2019, published 2025).

Biological target: T1, human MIF (Homo sapiens, UniProt P14174)
T1 sequence (P14174 2-115 limits assumed): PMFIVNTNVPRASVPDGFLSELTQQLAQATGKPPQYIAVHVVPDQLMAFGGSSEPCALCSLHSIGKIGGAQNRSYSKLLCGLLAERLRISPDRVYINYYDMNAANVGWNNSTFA
Experiment: Depletion of human MIF from cell culture supernatant (sandwich ELISA)
Assay type: cell-based
Settings: for removal of MIF from supernatant: after 48 hours, FIG. 129
Description: The ability of bifunctional MIF-binding molecules to mediate the depletion of human MIF from cell culture was investigated. In these assays, human MIF was present at a concentration of 100 nM, and a sandwich ELISA assay was utilized to measure the concentration of human MIF remaining in the cell culture supernatant. The closely related bifunctional molecules MIF-GN3, MIF-PEG2-GN3, and MIF-PEG4-GN3 were used, as well as the structurally dissimilar molecule MIF-NVS-PEG3-GN3. […] Based on the ease of its synthesis and its efficacy in this experiment, MIF-GN3 was utilized for further studies. It was next investigated whether the MIF inhibitor 3w mediates MIF depletion from cell culture supernatant. […] When cells were treated with 3w, no depletion of exogenous MIF protein was observed after 24 hours (FIG. 128B).
Bifunctional molecules containing optimized ASGPR-binding motifs are also capable of mediating MIF depletion from cell culture supernatant (FIG. 129). The MIF-binding molecule MIF-AF1, which contains only a single ASGPR-binding sugar, was not effective at mediating depletion of MIF from supernatant at any concentration tested. It is hypothesized that this is due to the compound's low predicted affinity for ASGPR (μM range). […] At a concentration of either 200 nM or 1 μM, MIF-AF2 mediated nearly 100%/o depletion of MLF from the cell culture supernatant after 48 hours. […] In contrast to these molecules, which utilize optimized synthetic ASGPR ligands, the GalNAc-based molecule MIF-GN3 mediated only 67.0% and 56.0% removal of MIF from supernatant after 48 hours at concentrations of 1 μM and 200 nM, respectively. […] At a concentration of 40 nM (4.0 pmol of molecule), MIF-AF3 mediates the removal of 83.2% of MIF present in the cell culture supernatant, or 8.32 pmol of human MIF protein. Therefore, it was concluded that under the conditions of this experiment, MIF-AF3 mediates the depletion of 2.08 molar equivalents of MIF protein.

CC(=O)N[C@H]1[C@H](OCCOCCOCCNC(=O)CCOCC(COCCC(=O)NCCOCCOCCO[C@@H]2O[C@H](CO)[C@H](O)[C@H](O)[C@H]2NC(C)=O)(COCCC(=O)NCCOCCOCCO[C@@H]2O[C@H](CO)[C@H](O)[C@H](O)[C@H]2NC(C)=O)NC(=O)CNC(=O)CCCOc2ccc3nc(-c4cn(-c5ccc(O)c(F)c5)nn4)ccc3c2)O[C@H](CO)[C@H](O)[C@@H]1O [MIF-GN3]
removal of MIF from supernatant (200 nM): 56.0%
removal of MIF from supernatant (1 μM): 67.0%
depletion of human MIF from cell culture supernatant (human MIF 100 nM, 24 hours, FIG. 128A): effective
